For one data set, the system named is human cancer cell lines. Further details: method as in PMID 31315183. As to conditions: previous studies; cited from earlier work.
Data set [1] concerns SH-SY5Y cells. Description: Mitochondrial membrane potential (ΔΨm), TMRM dye. The data set is classed as cell-based, human. As to conditions: 150 μM H2O2, 6 h; compound 0.001 μM; percentage of control cells. The procedure: Since mitochondria are key players in neurodegeneration, acting as main producers and targets of ROS,[16] mitochondrial function was determined by analyzing the mitochondrial membrane potential (ΔΨm) with the fluorescent dye tetramethylrhodamine methyl ester (TMRM).
Figure 3 Effect of furanoditerpenes on ΔΨm of human neuroblastoma cells. Cells were treated for 6 h with S. tubulifera metabolites with and without 150 μM H2O2, and ΔΨm was determined with the TMRM dye. (a) Compound 1, (b) compound 2, (c) compound 3, (d) compound 4, and (e) compound 5 effects. Vitamin E (Vit E) at 25 μM was used as a positive control in oxidative stress assays. Data expressed as the percentage of control cells. Mean ± SEM of three experiments performed in triplicate. Statistical differences determined by one-way ANOVA and Dunnett’s tests. ^#p < 0.05 compared to untreated control cells. *p < 0.05, **p < 0.01, and ***p < 0.01 compared to cells treated with H2O2 alone.
To determine the neuroprotective effects of compounds, SH-SY5Y cells were seeded in 384-well plates at a density of 2.5 × 10^4 cells per well. After 24 h, cells were treated with the metabolites at nontoxic concentrations (0.001–1 μM) and 150 μM H2O2 for 6 h. […]
The effects of compounds in ΔΨm were analyzed with the fluorescent dye TMRM. […] The fluorescence was read in a plate reader at 535 nm excitation and 590 nm emission. […]

In the next data set the test system is CypA. The data set is described as follows: CypA expression by Western blot. The note with it: 0.001 μM, 6 h; physiological and oxidative stress (150 μM H2O2) conditions. Background: A western blot detects proteins with antibodies after separation by electrophoresis.
Another data set deals with CypD. The data set is described as follows: CypD expression by Western blot. As to conditions: compound 0.001 μM + 150 μM H2O2, 6 h; % of H2O2 control cells.
In a further data set the target is human CypD (Homo sapiens, UniProt P30405). The data set is described as follows: Surface plasmon resonance binding to immobilized CypD. The note with it: for selectivity between CypD and CypA (KD values): CypD versus CypA; for kon: read-out: ka, CypD.
Chain of human CypD (P30405 30-207): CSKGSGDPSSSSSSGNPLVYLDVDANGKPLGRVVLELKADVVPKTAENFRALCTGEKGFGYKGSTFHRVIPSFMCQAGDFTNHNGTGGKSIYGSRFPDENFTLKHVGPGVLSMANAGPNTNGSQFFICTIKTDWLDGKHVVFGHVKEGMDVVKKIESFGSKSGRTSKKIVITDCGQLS
For data set [2], the system named is SH-SY5Y cells. The data set is described as follows: ROS intracellular levels, carboxy-H2DCFDA. The data set is classed as cell-based, human. The note with it: for effect on ROS content: cotreatment with 150 μM H2O2, 6 h. The method, then:
Next, the capacity of S. tubulifera metabolites to decrease ROS intracellular levels was evaluated (Figure 4). […] Regarding the oxidative stress model, H2O2 augmented the levels of oxidant molecules up to 125.1 ± 2.4% (p < 0.01) and the known antioxidant Vit E, used as a positive control, induced a reduction in ROS release of 24% with respect to cells treated only with H2O2 (p < 0.05).
Figure 4 ROS intracellular levels after treatment with compounds. Furanoditerpenes were added for 6 h in the absence and presence of 150 μM H2O2. Then, the ROS content was measured with the fluorescent dye 5-(and-6)-carboxy-2′,7′-dichlorodihydrofluorescein diacetate (carboxy-H2DCFDA). Results from (a) 1, (b) 2, (c) 3, (d) 4, and (e) 5. Vitamin E (Vit E) at 25 μM was used as a positive control. Data expressed as the percentage of untreated control cells. Mean ± SEM of three experiments performed in triplicate. Statistical differences determined by one-way ANOVA test followed by Dunnett’s post hoc test. ^##p < 0.01 compared to control cells. *p < 0.05, **p < 0.01, and ***p < 0.01 compared to H2O2 control.
(§1) For these experiments, cells were seeded in 384-well plates and treated as described above. All of the assays were carried out as previously described.[15]
The fluorescent dye 5-(and-6)-carboxy-2′,7′-dichlorodihydrofluorescein diacetate (carboxy-H2DCFDA) was used to evaluate ROS levels. After treatment with compounds and H2O2, cells were washed twice with serum-free medium. Next, cells were loaded with 20 μM carboxy-H2DCFDA dissolved in serum-free medium, and the plate was incubated for 1 h at 37 °C and 300 rpm. Then, 100 μL of PBS were added to each well for 30 min at 37 °C and 300 rpm. After this incubation, the fluorescence was read at […].

Data set [3] relates to SH-SY5Y cells. The data set is described as follows: Cell viability in H2O2 oxidative stress model, MTT assay. The data set is classed as cell-based, human. As to conditions: 150 μM H2O2, 6 h; 0.001-1 μM. The method, then: First, the capacity of 1–5 to improve cell survival under oxidative stress conditions was determined with the MTT assay (Figure 2). […] When cells were injured with the oxidant specie, a decrease in the cell viability of 23.6 ± 3.5% (p < 0.05) was observed.
Figure 2 Effect of compounds on the cell viability of SH-SY5Y cells. Compounds were added to human neuroblastoma cells for 6 h with and without 150 μM H2O2, and cell viability was evaluated with the MTT assay. Results of (a) compound 1, (b) compound 2, (c) compound 3, (d) compound 4, and (e) compound 5. Vitamin E (Vit E) at 25 μM was used as a positive control in oxidative stress assays. Mean ± standard error of the mean (SEM) of three experiments performed in triplicate. Data expressed as the percentage of control cells, compared by one-way analysis of variance (ANOVA) and Dunnett’s tests. ^#p < 0.05 compared to untreated control cells. *p < 0.05 and **p < 0.01 compared to cells treated with H2O2 alone. […]
The ability of compounds to protect cell viability from H2O2 was evaluated with 3-(4,5-dimethylthiazol-2-yl)-2,5-diphenyltetrazolium bromide (MTT) test. […] The absorbance of formazan crystals was measured at 595 nm with a plate reader. Saponin at 40 mg/mL was used as the death control, and its absorbance value was subtracted from the other data.

In data set [4] the test system is SH-SY5Y cells. Description: GSH content, Thiol Tracker Violet. The data set is classed as cell-based, human. The procedure:
To confirm the antioxidant properties of S. tubulifera compounds, the levels of the most important nonenzymatic antioxidant of cells, glutathione (GSH), were assessed. […] Regarding diterpene 2, an increase in the nonenzymatic antioxidant was observed when cells were cotreated with H2O2 and this compound at 0.001 and 1 μM (p < 0.05) (Figure 5b). No effects were found after the addition of 3 (Figure 5c), but 4 and 5 presented interesting results (Figure 5d,e).
Figure 5 Effect of S. tubulifera metabolites in the GSH content of human neuroblastoma cells. SH-SY5Y cells were treated with compounds for 6 h with and without 150 μM H2O2. GSH levels were monitored with Thiol Tracker Violet dye. (a) Compound 1, (b) compound 2, (c) compound 3, (d) compound 4, and (e) compound 5 results. Vitamin E (Vit E) at 25 μM was used as a positive control. Mean ± SEM of three experiments performed in triplicate. Data presented as the percentage of untreated control cells and compared by one-way ANOVA and Dunnett’s tests. ^##p < 0.01 compared to control cells. *p < 0.05 compared to cells treated with H2O2 alone.
as §1
Thiol Tracker Violet was used to measure intracellular GSH levels, following the manufacturer’s instructions. Briefly, human neuroblastoma cells were rinsed twice with PBS and the fluorescence dye at 10 μM was added. The plate was incubated for 30 min at 37 °C and 300 rpm, and the fluorescence was measured at 404 nm excitation and 526 nm emission in a plate reader. All experiments were performed three independent times in triplicate.

The target of a further data set is Human CypA (Homo sapiens, UniProt P62937). The data set is described as follows: Surface plasmon resonance binding to immobilized CypA. The note with it: for Kd: CypA, SPR, 1:1 Langmuir model, PBS-T pH 7.2, 24 °C; for kon: read-out: ka, CypA. A general note: In SPR one partner is held on a chip, and binding of the other changes the refractive index at the surface.
Chain of Human CypA (P62937 whole entry): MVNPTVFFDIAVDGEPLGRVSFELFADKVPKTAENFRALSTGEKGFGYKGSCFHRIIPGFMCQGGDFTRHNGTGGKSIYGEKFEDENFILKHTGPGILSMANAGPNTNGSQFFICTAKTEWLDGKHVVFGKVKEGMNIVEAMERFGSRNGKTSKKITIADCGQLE

The next data set deals with CypC. The data set is described as follows: CypC expression by Western blot. The note with it: 0.001 μM + 150 μM H2O2, 6 h; % of H2O2 control.
Details of data set [5]: method as in doi:10.1246/cl.1987.1687. As to conditions: previous studies; cited from earlier work.
In data set [6] the test system is mitochondrial permeability transition pore (mPTP). The data set is described as follows: mPTP opening, calcein-AM/CoCl2 flow cytometry. The note with it: 0.001 μM, 15 min pretreatment, TBHP 3 min.
Description: SH-SY5Y cells were treated for 15 min with 1–5, and 1 mM tert-butyl hydroperoxide (TBHP) was used to open the pore. Cells were loaded with calcein-AM, which accumulates in cytosol and cell compartments and with CoCl2 that quenches cytosolic fluorescence but not the mitochondrial signal.[17] Then, fluorescence was analyzed by flow cytometry (Figure 6a). […] (a) Analysis of mPTP opening. Cells were treated with compounds at 0.001 μM for 15 min, and pore opening was induced with 1 mM TBHP. Calcein-AM and CoCl2 were used to measure mPTP aperture by flow cytometry. […] Values are presented as the percentage of control cells. Data are mean ± SEM of three independent experiments. Statistical differences determined by one-way ANOVA and Dunnett’s tests. ^###p < 0.001 compared to control cells. *p < 0.05 and **p < 0.01 compared to cells treated only with TBHP.
The inhibition of mPTP by compounds was determined with the MitoProbe Transition Pore Assay Kit, as previously described.[21] For this assay, cells were seeded in 12-well plates at 5 × 10^5 cells per well and allowed to grow for 24 h. Then, SH-SY5Y cells were detached with Detachin solution (Genlatis, San Diego), washed with PBS, and resuspended in PBS buffer with 0.6 mM CaCl2. Cells were loaded with 0.01 μM calcein-AM and incubated at 37 °C for 15 min. Then, 0.4 mM CoCl2 and compounds at 0.001 μM were added and cells were incubated for 15 min at 37 °C. After this incubation, cells were centrifuged, resuspended in 100 μL of calcium-free PBS, and kept on ice. Finally, TBHP at 1 mM was added for 3 min to the cells to induce the pore opening. […] The fluorescence of 10 000 events was analyzed with IDEAS Application vs 6.0 (Amnis Corporation, Luminex Corp).
For the next data set, the system named is CypB. The note with it: compound alone 0.001 μM, 6 h; % of untreated control cells.

The source of these data is publication PMC9686139, “Furanoditerpenes from Spongia (Spongia) tubulifera Display Mitochondrial-Mediated Neuroprotective Effects by Targeting Cyclophilin D” (ACS Chemical Neuroscience, 2022).

As a reminder, the Kd is a measure of binding affinity in units of concentration. A higher Kd goes with lower affinity.

Description for CypB: Before starting the experiments, antibody specificity was determined due to the conserved structures along Cyps. […] Human neuroblastoma cells were treated with compounds at 0.001 μM for 6 h, and Cyps expression was determined by Western blot (Figure 10).
SH-SY5Y cells were treated with 1–5 at 0.001 μM for 6 h, and their effects on Cyps expression were determined by Western blot. […] Protein band expression was normalized by actin levels. Results expressed as the percentage of untreated control cells or as the percentage of H2O2 control. Mean ± SEM of three replicates carried out in duplicate. Statistical differences determined by one-way ANOVA and Dunnett’s tests. ^#p < 0.05 and ^##p < 0.01 compared to control cells. *p < 0.05, **p < 0.01, and ***p < 0.01 compared to cells treated with H2O2 alone.
SH-SY5Y cells were cultured in 12-well plates at 1 × 10^6 cells per well and allowed to settle down for 24 h. Then, cells were treated with compounds at 0.001 μM for 6 h and oxidative damage was induced with 150 μM H2O2.
Cells were washed twice with ice-cold PBS, and a hypotonic solution was added (20 mM tris–HCl pH 7.4, 10 mM NaCl, and 3 mM MgCl2, containing phosphatase and protease inhibitor cocktail). […] The supernatant was collected as the cytosolic fraction, and protein concentration was quantified with the Direct Detect instrument (Merck Millipore, Darmstadt, Germany).[15] […]
Description for CypC: Human neuroblastoma cells were treated with compounds at 0.001 μM for 6 h, and Cyps expression was determined by Western blot (Figure 10). […] SH-SY5Y cells were treated with 1–5 at 0.001 μM for 6 h, and their effects on Cyps expression were determined by Western blot. […] Protein band expression was normalized by actin levels. Results expressed as the percentage of untreated control cells or as the percentage of H2O2 control. Mean ± SEM of three replicates carried out in duplicate. Statistical differences determined by one-way ANOVA and Dunnett’s tests. ^#p < 0.05 and ^##p < 0.01 compared to control cells. *p < 0.05, **p < 0.01, and ***p < 0.01 compared to cells treated with H2O2 alone. […]
Cells were washed twice with ice-cold PBS, and a hypotonic solution was added (20 mM tris–HCl pH 7.4, 10 mM NaCl, and 3 mM MgCl2, containing phosphatase and protease inhibitor cocktail). […] The supernatant was collected as the cytosolic fraction, and protein concentration was quantified with the Direct Detect instrument (Merck Millipore, Darmstadt, Germany).[15]
Electrophoresis was resolved in 4–20% sodium dodecyl sulfate polyacrylamide gels (Biorad, Hercules, CA), containing 15 μg of cytosolic protein from each sample. […] Immunoreactive bands were detected with Supersignal West Pico Luminiscent Substrate and Supersignal West Femto Maximum Sensitivity Substrate. […]
Description for Human CypA: The protein was immobilized on the sensor surface by amino coupling, as described above (Figure S7), and compounds at several concentrations were added. The same conditions set for CypD were used for CypA experiments, with a flow rate of 20 μL/min and PBS-T (pH 7.2) as the running buffer.
Figure 9 Binding of compounds to CypA measured by surface plasmon resonance. The left panels present association curves obtained by the addition of compounds over immobilized CypA and subtraction of their respective vehicle signal. The right panels show fitting curves for equilibrium binding. Representative graphs of one independent replicate. […] Kinetic equilibrium dissociation constants (KD) and fitting curves were obtained with TraceDrawer software.
(§2) SPR measurements were performed using the MP-SPR Navi 210A VASA instrument with SPR Navi Control software (BioNavis, Tampere, Finland). All of the analyses were carried out in three-dimensional (3D) carboxymethyl dextran hydrogel-coated (CMD-3DM) sensors (BioNavis). PBS, 0.05% Tween (pH 7.2) was used as the running buffer for sensor activation, protein immobilization, and analyte injection. All buffers were degassed and filtered by 0.22 μm before use. The flow rate and temperature were set at 20 μL/min and 24 °C, respectively. A commercial Amine Coupling Kit (Xantec bioanalytics GmbH, Düsseldorf, Germany) was used for sensor activation and Cyps immobilization. The chip surface was preconditioned with 2 M NaCl and 0.01 M NaOH. Then, the surface was activated by the addition of 0.2 M 1-ethyl-3-(3-dimethylaminopropyl)carbodiimide hydrochloride (EDC) and 0.05 M N-hydroxysuccinimide (NHS). After activation, 50 μg/mL of CypA or CypD dissolved in 5 mM sodium acetate buffer (pH 4.5) were injected for immobilization on the sensor surface. […] Compound injections were performed in serial mode, and the reference channel signal was subtracted from the analyte sensorgram. Data were processed with MP-SPR Navi Data Viewer (BioNavis), and KD values were obtained using the 1:1 Langmuir model with mass transport considerations of TraceDrawer software (RidgeView Instruments Ab, Uppsala, Sweden). All of the experiments were performed three independent times.
Description for human CypD: With this objective, surface plasmon resonance (SPR) experiments were performed. CypD was immobilized in the sensor surface as a ligand, and 1–5 were injected as analytes. […] For immobilization, amine groups were activated with 1-ethyl-3-(3-dimethylaminopropyl)carbodiimide hydrochloride (EDC) and N-hydroxysuccinimide (NHS) and 50 μg/mL of human CypD dissolved in 5 mM sodium acetate (pH 4.5) was added. […] All of the assays were carried out with phosphate-buffered saline (PBS)—0.05% Tween (pH 7.2) as the running buffer, with a flow rate of 20 μL/min at 24 °C.
The left panels present association curves obtained by the addition of compounds over immobilized CypD and subtraction of their respective solvent control. The right panels show fitting curves for equilibrium binding. Representative graphs of one independent replicate. […] All injections were performed using PBS, 0.05% Tween (pH 7.2) as the running buffer. Kinetic equilibrium dissociation constants (KD) and fitting curves were obtained with TraceDrawer software.
as §2

Consider `CC1(C)[C@@H](O)C(=O)C[C@]2(C)[C@H]3CCc4cocc4[C@]3(C)CC[C@@H]12` [Compound 1], for which the cytotoxicity entry in the data set on human cancer cell lines is recorded as “weak cytotoxicity”. In the data set with SH-SY5Y cells [1], this molecule registered a ΔΨm of 96.7 ± 5.4%. Further, in the data set with CypA, the “effect on CypA expression” value is on record as “decreased its expression”. For the same molecule, in the data set on CypD, the “CypD expression under oxidative damage” value is “about 54%”. For the same molecule, on human CypD (SPR, 1:1 Langmuir model, PBS-0.05% Tween pH 7.2, 24 °C), the “KD (kinetic equilibrium dissociation constant), CypD” value was “No binding”. Besides, at human CypD (SPR), the “selectivity between CypD and CypA (KD values)” value is listed as “selective toward CypA”. On human CypD (SPR, Table S1), the “ka, CypD” value is recorded as “No binding” and the “kd, CypD” value is “No binding”. Also, at human CypD (SPR, up to 50 μM), the “binding to CypD” value was “No binding”. The “effect on ROS content” value in the data set on SH-SY5Y cells [2] (all four concentrations 0.001-1 μM) is reported as “significant decrease”. Also, in the data set with SH-SY5Y cells [3], the “protection of cell viability from H2O2 damage” value is listed as “not able to protect”. For the same molecule, in the data set with SH-SY5Y cells [4] (compound alone and with 150 μM H2O2, 6 h), the “effect on GSH content” value is “did not affected the GSH content”. Further, on Human CypA, the affinity, expressed as Kd, was 15.2 ± 1.31 µM and the kon was determined as 682 M⁻¹ s⁻¹. Besides, the “SPR signal, CypA” value on Human CypA (at 50 μM) amounted to 9.9 mdeg.

Turning to `CC1(C)C(=O)C(O)=C[C@]2(C)[C@H]3CCc4cocc4[C@]3(C)CC[C@@H]12` [Compound 2], the “CypC expression under oxidative injury” value with CypC was 24.3 ± 2.9%. Further, the “CypD expression under oxidative damage” value in the data set on CypD worked out at 37.9 ± 17.9%. On human CypD, the dissociation constant Kd turned out to be 2.53 ± 0.006 µM and the kon amounted to 10000 M⁻¹ s⁻¹. The “selectivity between CypD and CypA (KD values)” value on human CypD (SPR) was “selectivity toward the mitochondrial isoform”. Moreover, the ROS levels in the data set with SH-SY5Y cells [2] (150 μM H2O2, 6 h, compound 0.1 μM, percentage of untreated control cells) amounted to 89.9 ± 5.7%. Further, the “effect on ROS content” value with SH-SY5Y cells [2] (at 0.001, 0.1 and 1 μM) was “reduced the levels”. Also, in the data set on SH-SY5Y cells [4] (cotreated with 150 μM H2O2, 6 h, at 0.001 and 1 μM), the “effect on GSH content” value is recorded as “increase”. For the same molecule, at Human CypA, the Kd is 14.7 ± 1.08 µM and the kon amounted to 1320 M⁻¹ s⁻¹.

In the case of `C[C@]12CC(=O)[C@H](O)[C@](C)(CO)[C@@H]1CC[C@@]1(C)c3cocc3CC[C@H]21` [Compound 4, epispongiadiol], in the data set with human cancer cell lines, the cytotoxicity entry is on record as “weak cytotoxicity”. Also, the antiviral activity entry in [5] is on record as “antiviral activity”. Moreover, the “inhibition of mPTP opening after oxidative injury” value in [6] is given as “able to inhibit mPTP opening”. For the same molecule, in the data set on CypD, the “CypD expression under oxidative damage” value is given as “about 54%”. Also, at human CypD, the Kd was determined as 30.4 ± 0.87 µM and the kon amounted to 738 M⁻¹ s⁻¹. For the same molecule, the CypB expression in the data set with CypB amounted to 48.54 ± 11.4%. Moreover, on Human CypA, binding was put at a Kd of 27.4 ± 3.68 µM and the kon worked out at 861 M⁻¹ s⁻¹.
